Data taken from US12018307B2, “Process for producing a glucuronide and genetically modified microorganisms useful in this process” (UTAH STATE UNIVERSITY, priority 2021, dated 2024).
In brackets after ≈: the same amount, converted by molar mass. Read-outs that look alike come from different tables or passages of the source. One block for each compound: values may come before it.

How the values were obtained:
[1] = Determination of the water-solubility; type: physicochemical
Protocol: The purified product was tested for their water solubility as previously described (Wang et al. 2014). Purified 2′-hydroxyflavone glycoside was used to establish standard curves for quantifying water solubility. Briefly, the purified compound and the substrate were each mixed with 300 μL of distilled water in an Eppendorf tube at 25° C. An ultrasonic cleaner was used to facilitate the dissolution. After 30 min of sonication and centrifugation at 13,000×g for 10 min, supernatant of each sample was analyzed by HPLC to determine the compound concentrations in the solution. All samples were performed in triplicate and water solubility of each sample are expressed as the mean±standard deviation (SD).

[2] = test system: human peripheral blood mononuclear cells; conditions: cited from earlier work

- water solubility ([1]; distilled water, 25° C., 30 min sonication, HPLC, n=3, mean±SD): 34.8 ± 0.9 µg/mL (≈ 84 µM)
- water solubility relative to the substrate 2′-hydroxyflavone ([1]; ratio glucuronide / substrate): around 14 times
Structure (SMILES): O=C(O)[C@H]1O[C@@H](Oc2ccccc2-c2cc(=O)c3ccccc3o2)[C@H](O)[C@@H](O)[C@@H]1O [hydroxyflavone-2′-O-β-D-glucuronide]

- solubility at 30 min ([1]; thermodynamic from solid, distilled water, 25° C., 30 min sonication, HPLC, n=3, mean±SD): 2.5 ± 0.7 µg/mL (≈ 10.5 µM)
Structure (SMILES): O=c1cc(-c2ccccc2O)oc2ccccc12 [2′-hydroxyflavone, reference compound]

Structure (SMILES): Oc1ccc(C=Cc2cc(O)cc(O)c2)cc1 [resveratrol, reference compound]
- cytotoxicity to human peripheral blood mononuclear cells ([2]; at 30 μM): has cytotoxicity

Structure (SMILES): O=C(O)[C@H]1O[C@@H](Oc2ccc(/C=C/c3cc(O)cc(O)c3)cc2)[C@H](O)[C@@H](O)[C@@H]1O [resveratrol-4′-O-β-D-glucuronide, Resveratrol-4′-O-β-D-glucuronide]
- cytotoxicity to human peripheral blood mononuclear cells ([2]; at 300 μM): did not show any cytotoxicity
